Source: patent US9873702B2, “Heterocyclic compounds as biogenic amine transport modulators” (Southern Research Institute, priority 2014, dated 2018)
“Also recorded” adds a separate entry of the source. Read-outs that look alike come from different tables or passages of the source.

Biological target: dopamine transporter (DAT) (Rattus norvegicus, UniProt P23977)
Experiment: Dopamine reuptake ([^3H]dopamine uptake) inhibition in rat brain synaptosomes
Conditions: for efficacy of [^3H]DA (DAT) uptake inhibition, in words: partial versus full inhibition
[1] = DA Uptake EC50 (nM ± SD), rat caudate synaptosomes, 5 nM [^3H]dopamine, 15 min, 25° C., three experiments pooled
[2] = read-out: DA Uptake Emax (% I ± SD)
[3] = One-Site IC50 (nM), [^3H]DA uptake dose-response curve fit to one-component equation
[4] = Two-Site IC50-1 (nM), [^3H]DA uptake dose-response curve fit to two-component equation, component 1
[5] = Two-Site IC50-2 (nM), [^3H]DA uptake dose-response curve fit to two-component equation, component 2
[6] = read-out: Two-Site Emax-1 (% I)
[7] = read-out: Two-Site Emax-2 (% I)

Chain of dopamine transporter (DAT) (P23977 whole entry): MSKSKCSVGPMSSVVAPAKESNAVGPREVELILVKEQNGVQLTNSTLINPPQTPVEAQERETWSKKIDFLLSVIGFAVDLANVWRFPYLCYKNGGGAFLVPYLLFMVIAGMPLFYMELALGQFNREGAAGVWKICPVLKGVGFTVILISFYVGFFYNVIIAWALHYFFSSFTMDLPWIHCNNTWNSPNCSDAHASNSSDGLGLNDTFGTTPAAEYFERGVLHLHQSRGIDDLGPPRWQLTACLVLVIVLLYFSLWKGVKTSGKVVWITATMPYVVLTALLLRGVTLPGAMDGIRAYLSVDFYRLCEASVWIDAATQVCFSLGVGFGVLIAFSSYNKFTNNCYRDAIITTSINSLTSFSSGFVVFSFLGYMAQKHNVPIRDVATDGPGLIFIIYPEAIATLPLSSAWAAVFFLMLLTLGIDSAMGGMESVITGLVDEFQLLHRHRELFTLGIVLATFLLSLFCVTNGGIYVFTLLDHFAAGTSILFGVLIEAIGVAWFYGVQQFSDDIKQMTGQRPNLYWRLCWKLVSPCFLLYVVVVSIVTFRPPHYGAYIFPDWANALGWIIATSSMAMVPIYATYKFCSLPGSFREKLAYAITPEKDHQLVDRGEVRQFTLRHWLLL

Row | Compound | IC50 [1] | Emax [2] | further results
1 | c1ccc(C(CNc2nc(-c3cccn4ccnc34)nc3ccccc23)c2ccccc2)cc1 [compound 147, N-(2,2-Diphenylethyl)-2-(Imidazo[1,2-A]pyridin-8-yl)Quinazolin-4-Amine] | 92 ± 21 nM | 92 ± 4% | 
2 | c1ccc(C(CNc2nc(-c3c[nH]c4ccccc34)nc3ccccc23)c2ccccc2)cc1 [compound 82, N-(2,2-Diphenylethyl)-2-(1H-Indol-3-yl)Quinazolin-4-Amine] | 239 ± 84 nM | 93 ± 7% | 
3 | Cc1cc2nccn2cc1-c1nc(NCC(c2ccccc2)N(C)C)c2ccccc2n1 (stereo not drawn) [compound 196, N1,N1-Dimethyl-N2-(2-(7-Methylimidazo[1,2-A]Pyridin-6-yl)Quinazolin-4-yl)-1-Phenylethane-1,2-Diamine] | 14 ± 5 nM | 77 ± 4% | 
4 | COCc1c[nH]c2ccc(-c3nc(NCC(c4ccccc4)c4ccccc4)c4ccccc4n3)cc12 [compound 116, N-(2,2-Diphenylethyl)-2-(3-(Methoxymethyl)-1H-Indol-5-yl)Quinazolin-4-Amine] | 165 ± 15 nM | 69 ± 1% | 
5 | CN(C)c1ccc(-c2nc(NCCc3ccccc3)c3ccccc3n2)cc1 [SRI-31335] |  |  | IC50 [3]: 156 ± 12 nM; IC50 [4]: 99 ± 63 nM; IC50 [5]: 564 ± 1180 nM; efficacy of [^3H]DA (DAT) uptake inhibition, in words: fully inhibits; also recorded: full-efficacy [^3H]DA uptake inhibitors; Emax (read-out: One-Site Emax (% I)): 100 ± 1.5%; Emax [6]: 76 ± 54%; Emax [7]: 27 ± 53%
6 | Cc1c(-c2nc(NCC(c3ccccc3)c3ccccc3)c3ccccc3n2)ccc2nccn12 [compound 195, N N-(2,2-Diphenylethyl)-2-(5-Methylimidazo[1,2-A]Pyridin-6-yl)Quinazolin-4-Amine] | 34 ± 6 nM | 74 ± 2% | 
7 | c1ccc(C(CNc2nc(-c3ccc4nccn4c3)nc3ccccc23)c2ncccn2)cc1 (stereo not drawn) [compound 103, 2-(Imidazo[1,2-A]Pyridin-6-yl)-N-(2-Phenyl-2-(Pyrimidin-2-yl)Ethyl)Quinazolin-4-Amine] | 553 ± 82 nM | 73 ± 2% | 
8 | c1ccc(C(CCNc2nc(-c3ccsc3)nc3ccccc23)c2ccccc2)cc1 [compound 5, N-(3,3-Diphenylpropyl)-2-(thiophen-3-yl)quinazolin-4-amine] | 416 ± 22 nM | 83 ± 1% | 
9 | c1ccc(C(CNc2nc(-c3ccc4nccn4c3)nc3ccccc23)n2ccnc2)cc1 (stereo not drawn) [compound 115, N-(2-(1H-Imidazol-1-yl)-2-Phenylethyl)-2-(Imidazo[1,2-A]Pyridin-6-yl)Quinazolin-4-Amine] | 83 ± 27 nM | 58 ± 3% | 
10 | c1ccc(C(CNc2nc(-c3ccc4c(c3)CCN4)nc3ccccc23)c2ccccc2)cc1 [compound 84, N-(2,2-Diphenylethyl)-2-(Indolin-5-yl)Quinazolin-4-Amine] |  | 75 ± 3% | IC50 [3]: 18 ± 4 nM; IC50 [4]: 1.8e+06 nM; IC50 [5]: 1.8e+06 nM; efficacy of [^3H]DA (DAT) uptake inhibition, in words: partially inhibit; also recorded: partial inhibitors; Emax (read-out: One-Site Emax (% I)): 75 ± 3%; Emax [6]: 37%; Emax [7]: 37%
11 | c1ccc(C(CNc2nc(-c3ccc4c(c3)NCCC4)nc3ccccc23)c2ccccc2)cc1 [compound 83, N-(2,2-Diphenylethyl)-2-(1,2,3,4-Tetrahydroquinolin-7-yl)Quinazolin-4-Amine] | 132 ± 43 nM | 69 ± 4% | 
12 | c1ccc(C(CNc2nc(N3CCCCC3)nc3ccccc23)c2ccccc2)cc1 [compound 4, N-(2,2-Diphenylethyl)-2-(piperidin-1-yl)quinazolin-4-amine] | 60 nM | 100% | 
13 | c1ccc(C(CCNc2nc(-c3cccnc3)nc3ccccc23)c2ccccc2)cc1 [compound 1, N-(3,3-Diphenylpropyl)-2-(pyridin-3-yl)quinazolin-4-amine] | 443 ± 88 nM | 82 ± 3% | 
14 | Cc1cc2nccn2cc1-c1nc(NCC(c2ccccc2)C2CCCC2)c2ccccc2n1 (stereo not drawn) [compound 194, N-(2-Cyclopentyl-2-Phenylethyl)-2-(7-Methylimidazo[1,2-A]pyridin-6-yl)Quinazolin-4-Amine] | 1.6 ± 0.3 nM | 74 ± 2% | 
